Test results published in PubChem BioAssay (NCI).
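Compound exposure: 48 hours, 5 concentrations, 96-well plates. GI50 marks 50% less growth. TGI marks complete inhibition of growth.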

How the values were obtained:
Assay in all cases: NCI anticancer screen, dose series, 48 h
[1] = test system: HCT-116 colon
[2] = test system: RXF 393 renal
[3] = test system: U251 CNS
[4] = test system: SK-MEL-2 melanoma
[5] = test system: SK-MEL-28 melanoma
[6] = test system: A549 NSCLC
[7] = test system: RPMI-8226 leukemia
[8] = test system: OVCAR-4 ovarian
[9] = test system: SW-620 colon
[10] = test system: HCC-2998 colon

## COc1c(OC(C)=O)cc2c(OC(C)=O)c1CC(C)CC(OC)C(O)C(C)/C=C(\C)C(OC(N)=O)C(OC)/C=C\C=C(/C)C(=O)N2 (stereo unspecified)
[1]
  TGI: > 100 µM
[2]
  TGI: > 100 µM
[3]
  TGI: > 100 µM
[4]
  TGI: > 100 µM
[5]
  TGI: > 100 µM
[6]
  TGI: > 100 µM
[7]
  TGI: > 80.9 µM
[8]
  TGI: > 100 µM
[9]
  TGI: > 100 µM
[10]
  TGI: > 100 µM

## CCN1CCN(CCOc2ccc(CNc3ccc4nc(CCC5CCCCC5)[nH]c4c3)cc2)CC1
[1]
  GI50: 1.32 µM
  TGI: 2.87 µM
[2]
  GI50: 1.3 µM
  TGI: 3.31 µM
[3]
  GI50: 1.49 µM
  TGI: 3.16 µM
[4]
  GI50: 1.92 µM
  TGI: 3.77 µM
[6]
  GI50: 2.61 µM
  TGI: 8.13 µM
[7]
  GI50: 1.43 µM
  TGI: 3.79 µM
[8]
  GI50: 2.61 µM
  TGI: 11.1 µM
[9]
  GI50: 1.91 µM
  TGI: 4.14 µM
[10]
  GI50: 2.22 µM
  TGI: 5.07 µM

## Cn1cc(-c2csc(-c3c[nH]c4ncccc34)n2)c2cc(Br)cnc21
[1]
  GI50: 2.91 µM
  TGI: > 100 µM
[2]
  GI50: 2.05 µM
  TGI: 8.63 µM
[3]
  GI50: 2.7 µM
  TGI: > 100 µM
[4]
  GI50: 19.8 µM
  TGI: 66.7 µM
[7]
  GI50: > 100 µM
  TGI: > 100 µM
[9]
  GI50: 4.46 µM
  TGI: > 100 µM
[10]
  GI50: > 100 µM
  TGI: > 100 µM

## O=C(c1cc2ccccc2[nH]1)C(O)(c1cc2ccccc2[nH]1)c1cc2ccccc2[nH]1
[1]
  TGI: > 246 µM
[2]
  TGI: > 246 µM
[3]
  TGI: > 246 µM
[4]
  TGI: > 246 µM
[5]
  TGI: > 246 µM
[6]
  TGI: > 246 µM
[7]
  TGI: > 246 µM
[9]
  TGI: > 246 µM
[10]
  TGI: > 246 µM

## Cc1ccc(SSCCCS(=O)O)cc1
[1]
  TGI: > 100 µM
[2]
  TGI: 72.3 µM
[3]
  TGI: 41.2 µM
[4]
  TGI: > 100 µM
[5]
  TGI: > 100 µM
[6]
  TGI: > 100 µM
[8]
  TGI: > 100 µM
[9]
  TGI: > 100 µM
[10]
  TGI: > 100 µM

## CCC(=O)C1=C(OC(C)=O)C2Cc3c(n(C)c4ccccc34)C(C1)N2C (stereo unspecified)
[1]
  TGI: 85.1 µM
[3]
  TGI: > 100 µM
[4]
  TGI: > 100 µM
[5]
  TGI: > 100 µM
[6]
  TGI: > 100 µM
[8]
  TGI: > 100 µM
[9]
  TGI: 90.1 µM
[10]
  TGI: > 100 µM

## Cc1ccc(-n2c3c(c4c(CN5CCCCC5)c(O)ccc42)CCc2ccccc2C3=O)cc1
[1]
  GI50: 43.4 µM
  TGI: > 100 µM
[2]
  GI50: 24.7 µM
  TGI: > 100 µM
[3]
  GI50: 47.9 µM
  TGI: > 100 µM
[4]
  GI50: > 100 µM
  TGI: > 100 µM
[6]
  GI50: > 100 µM
  TGI: > 100 µM
[7]
  GI50: > 100 µM
  TGI: > 100 µM
[9]
  GI50: > 100 µM
  TGI: > 100 µM
[10]
  GI50: > 100 µM
  TGI: > 100 µM

## CN(C)CC(C(=O)c1ccccc1)c1ccccc1 (stereo unspecified)
[1]
  GI50: 1.03 µM
  TGI: 2.2 µM
[2]
  GI50: 1.69 µM
  TGI: 4.46 µM
[3]
  GI50: 1.56 µM
  TGI: 3.13 µM
[4]
  GI50: 3.35 µM
  TGI: 7.87 µM
[5]
  GI50: 4.13 µM
  TGI: 13.6 µM
[6]
  GI50: 6.76 µM
  TGI: 20.6 µM
[7]
  GI50: 2.08 µM
  TGI: 7.49 µM
[9]
  GI50: 0.396 µM
  TGI: 1.57 µM
[10]
  GI50: 4.86 µM
  TGI: 16.4 µM

## CCSC1(SCC)CCN(C=NC(C)(C)C)C1
[1]
  TGI: > 100 µM
[2]
  TGI: > 100 µM
[3]
  TGI: > 100 µM
[4]
  TGI: > 100 µM
[5]
  TGI: > 100 µM
[6]
  TGI: > 100 µM
[8]
  TGI: > 100 µM
[9]
  TGI: 53.2 µM
[10]
  TGI: > 100 µM
